Consider five molecules from ChEMBL document CHEMBL1201862, “PubChem BioAssay data set” (2004).

Structures are written as SMILES.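 How tested: cells in 96-well plates exposed to compound for 48 hours at five concentrations. At the GI50, growth is halved.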 Calls of active or inactive are those of the source. No stated cut-off is given here; in the data, active = GI50 up to about 1.1 µM and inactive = higher. A value given as a limit tells only on which side of the number the result lay.

Some test systems named below: SN12C; NCI-H522; NCI-H460; NCI-H23; HT-29; 786-0; COLO 205; OVCAR-5; RPMI-8226; RXF 393; SF-295; SNB-19; U-251; SW-620; KM12; TK-10; HL-60.
Experiment in all cases: NCI anticancer screen, dose series, 48 h

For the molecule `CCc1ccccc1-n1c2nc(=O)n(C)c(=O)c-2nc2ccccc21`, the GI50 was 13.5 µM (inactive) in the assay with SN12C; 13.6 µM (inactive) in the assay with NCI-H522; 4.55 µM (inactive) with NCI-H460; 4.03 µM (inactive) with NCI-H23; 3.63 µM (inactive) with HT-29; 7.21 µM (inactive) in the assay on 786-0. Moreover, the GI50 in the assay with COLO 205 was 2.77 µM (inactive); in the assay with OVCAR-5 it was 20 µM (inactive); in the assay with RPMI-8226, 12.6 µM (inactive); in the assay with RXF 393, 13.7 µM (inactive); in the assay on SF-295 it was 11.5 µM (inactive); in the assay with SNB-19, 10.8 µM (inactive). Besides, the GI50 in the assay with U-251 is 16 µM (inactive); in the assay with SW-620, 13.8 µM (inactive); in the assay with KM12 it was 10.8 µM (inactive); in the assay on TK-10, 8.95 µM (inactive).

On to `Cc1cc(NS(=O)(=O)c2ccc(Nc3c4ccccc4nc4c(C(=O)NCCN(C)C)ccc(Cl)c34)cc2)no1`, for which the GI50 with SN12C was 3.88 µM (inactive); in the assay with NCI-H522, 0.54 µM (active); in the assay with NCI-H460, 1.36 µM (inactive); in the assay with NCI-H23, 3.05 µM (inactive); in the assay with HT-29, 2.86 µM (inactive); in the assay on 786-0 it was 4.41 µM (inactive). Moreover, the GI50 is 2.45 µM (inactive) in the assay on COLO 205; 15.1 µM (inactive) in the assay on OVCAR-5; 7.6 µM (inactive) in the assay with RXF 393; 3.8 µM (inactive) with SF-295; 2.67 µM (inactive) in the assay with SNB-19; 2.42 µM (inactive) with U-251. The GI50 with HL-60 was 1.14 µM (inactive); in the assay on SW-620 it was 1.92 µM (inactive); with KM12, 4.91 µM (inactive); with TK-10, 13.9 µM (inactive).

Take `CC(=O)NNc1nc(C)c(C(=O)/C=C/c2ccc(N(C)C)cc2)s1`: the GI50 in the assay on SN12C, in the assay on NCI-H522, in the assay with NCI-H460, with NCI-H23, with HT-29 and in the assay with 786-0 was > 100 µM (inactive) throughout. Besides, the GI50 is > 100 µM (inactive) in the assay on COLO 205; > 100 µM (inactive) in the assay with OVCAR-5; > 100 µM (inactive) in the assay on RPMI-8226; 88.9 µM (inactive) in the assay on RXF 393; > 100 µM (inactive) with SF-295; > 100 µM (inactive) with U-251. For the same molecule, the GI50 in the assay on HL-60, with SW-620, in the assay on KM12 and in the assay on TK-10 was > 100 µM (inactive) in each case.

For `CCOc1ccc(NC(=O)C(=O)CC(=O)C2=C(C)Nc3ccccc3S2)cc1`, the GI50 with SN12C, with NCI-H522, in the assay on NCI-H460, in the assay on NCI-H23, in the assay with HT-29 and in the assay on 786-0 was > 50 µM (inactive) each time. Moreover, the GI50 in the assay with COLO 205, in the assay on OVCAR-5, in the assay with RPMI-8226, in the assay on RXF 393, in the assay with SF-295 and with SNB-19 was > 50 µM (inactive) each time. In addition, the GI50 with U-251, with SW-620, in the assay with KM12 and in the assay with TK-10 was > 50 µM (inactive) in each case.

`Cc1nc(Nc2ccccc2)sc1C(=O)CC(=O)C(=O)Nc1c(C(C)C)cccc1C(C)C`: the GI50 in the assay on SN12C is > 100 µM (inactive); with NCI-H522 it was > 100 µM (inactive); with NCI-H460 it was > 100 µM (inactive); with NCI-H23, 85.5 µM (inactive); in the assay with HT-29, > 100 µM (inactive); in the assay on 786-0, > 100 µM (inactive). Moreover, the GI50 in the assay with COLO 205 was > 100 µM (inactive); with OVCAR-5, > 100 µM (inactive); in the assay with RXF 393, 42 µM (inactive); with SF-295, > 100 µM (inactive); in the assay on SNB-19 it was > 100 µM (inactive); in the assay on U-251, > 100 µM (inactive). For the same molecule, the GI50 with HL-60 is 67.9 µM (inactive); in the assay on SW-620, > 100 µM (inactive); with KM12, > 100 µM (inactive); in the assay on TK-10, > 100 µM (inactive).
